Activity calls are given as the source filed them.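 The calls were made as follows: active = half-maximal concentration for changing protein binding to DNA, from the fitted dose curve, below 10 micromolar; inactive = the rest.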
What follows are compounds tested against Nuclear receptor subfamily 1 group D member 1 (Homo sapiens) (UniProt P20393) (assay: Rev-erbα–DNA interaction modulators – biochemical, FITC-DNA, fluorescence polarization, dose response (AID 1259321)). Settings: Rev-erb alpha-FITC-DNA binding.
Nuclear receptor subfamily 1 group D member 1 (Homo sapiens), sequence (P20393 whole entry, looked up): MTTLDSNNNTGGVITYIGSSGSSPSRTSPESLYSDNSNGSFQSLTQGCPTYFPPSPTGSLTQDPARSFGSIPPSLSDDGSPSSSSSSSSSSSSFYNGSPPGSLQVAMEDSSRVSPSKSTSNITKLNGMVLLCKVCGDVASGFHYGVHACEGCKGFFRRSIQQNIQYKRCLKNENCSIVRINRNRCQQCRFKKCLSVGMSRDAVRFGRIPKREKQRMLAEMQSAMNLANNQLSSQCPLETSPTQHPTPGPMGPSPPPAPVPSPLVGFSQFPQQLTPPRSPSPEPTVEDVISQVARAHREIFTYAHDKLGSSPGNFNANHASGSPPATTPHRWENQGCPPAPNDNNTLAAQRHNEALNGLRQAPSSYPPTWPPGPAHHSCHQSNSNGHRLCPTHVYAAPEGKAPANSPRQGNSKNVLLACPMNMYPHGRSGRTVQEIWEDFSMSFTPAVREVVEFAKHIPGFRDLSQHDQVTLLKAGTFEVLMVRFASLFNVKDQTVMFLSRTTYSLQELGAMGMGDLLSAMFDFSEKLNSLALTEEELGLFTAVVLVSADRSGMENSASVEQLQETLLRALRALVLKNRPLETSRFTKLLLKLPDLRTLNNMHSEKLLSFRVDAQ
COc1ccc(NC(=O)c2sc3nc(N4CCCC4)c4c(c3c2N)CC(C)(C)OC4)cc1 was tested, and the IC50 was > 40 µM (inactive). Compound COCCCNc1nc2c(-c3ccc(C)cc3)nnn2c2ccccc12 has an IC50 of 5.07 µM. CCN(CC)c1ccc(C=C2SC(=S)NC2=O)cc1 showed an IC50 of 6.72 µM. With CSc1nnc2c3cc(F)ccc3n(Cc3ccccc3)c2n1 the IC50 was 7.93 µM. COC(=O)c1ccccc1-c1c2ccc(=N)cc-2oc2cc(N)ccc12 was tested, and the IC50 was > 40 µM (inactive). CCOC(=O)c1sc(NC(=O)c2ccc(S(=O)(=O)N(CC)CC)cc2)nc1C was tested, and the IC50 was “inactive”. For O=C(c1ccccc1)N1N=C(c2ccccc2O)CC1c1ccccc1 (configuration not stated), the IC50 was 2.32 µM. Cc1nc(SCC(=O)NC2CCCC2)c2oc3ccccc3c2n1 gave an IC50 of 7.45 µM. With Cc1ccc(Cl)cc1N1CCN(S(=O)(=O)c2ccc(-c3ccc(=O)[nH]n3)o2)CC1 the IC50 was “inactive”. For CCOc1ccc(OCC)c(NC(=O)c2[nH]c(C)c(C(C)=O)c2C)c1, the IC50 was 3.56 µM. In the case of COc1ccc(Cn2ccc3ccc(-c4ccc5ccn(C(=O)c6ccccc6OC)c5c4)cc32)cc1, the IC50 is reported as > 40 µM (inactive). COc1ccccc1NC(=O)c1sc2ncn(Cc3cccc4ccccc34)c(=O)c2c1C gave an IC50 of 2.38 µM. For CC(C)CC[n+]1ccccc1/C=C/c1ccc(N(C)C)cc1, the IC50 was “inactive”. For COc1ccc(-c2nc(NC(=O)c3ccc(OCC(=O)Nc4ccc(F)cc4)c(OC)c3)sc2C)cc1, the IC50 was > 40 µM (inactive). Work on Cc1[nH]c2ccccc2c1/C=C/c1cc[n+](C)cc1 yielded an IC50 of 4.41 µM. For CN1C(=O)c2ccc(C(=O)Nc3ccc(Br)cn3)cc2C1=O, the IC50 was > 40 µM (inactive). For CC(C)NC(=O)CSc1nc(-c2cccs2)cc(-c2ccccc2)c1C#N, the IC50 was 3.27 µM. With CCOc1ccccc1NC(=O)CSc1nc(N)c(C#N)cc1C#N the IC50 was “inactive”. COc1cccc(C(=O)n2ccc3ccc(-c4ccc5ccn(Cc6ccccc6)c5c4)cc32)c1 was tested, and the IC50 was 1.31 µM. COc1ccccc1N1C(=O)c2cccc3c(N(C)CCO)ccc(c23)C1=O was tested, and the IC50 was 8.2 µM. With C=CCN1C(=O)/C(=C\C=C2\N(C)c3ccccc3C2(C)C)SC1=S the IC50 was “inactive”. With N#CC(C#N)=C1C=C2C=C(N3CCOCC3)CCC2CC1 (configuration not stated) the IC50 was 4.31 µM. In the case of CC(=O)c1sc(NC(=O)COc2ccc(Br)cc2)nc1C, the IC50 is reported as 4.41 µM. For CCc1nc2ccccc2c(C(=O)OCc2nc3ccccc3c(=O)[nH]2)c1C, the IC50 was > 40 µM (inactive). Work on C[n+]1cc(C(=O)N2CCCCC2)ccc1/C=C/c1c[nH]c2ccccc12 yielded an IC50 of 9.3 µM. Cc1ccc(S(=O)(=O)c2nnn3c2nc(N2CCN(c4ccccn4)CC2)c2ccccc23)cc1C showed an IC50 of 3.36 µM. Work on CCN1C(=O)/C(=C\N2CCN(c3cccc(Cl)c3)CC2)SC1=S yielded an IC50 of 8.83 µM. With CN1C(=O)/C(=C\c2ccc(N3CCCCC3)o2)C(=O)NC1=S the IC50 was 3.49 µM. Compound Fc1cnc(N2CCc3ccccc32)nc1N1CCc2ccccc21 has an IC50 of 3.22 µM. O=[N+]([O-])c1ccc(NCc2ccccc2)c2nonc12 was tested, and the IC50 was 1.2 µM. COc1ccc(CC(=O)Nc2ccc(-c3noc(-c4ccccc4OC)n3)cc2)cc1 was tested, and the IC50 was 4.17 µM. O=S(=O)(N1CCCCC1)N1CCN(CC(O)COc2ccc3cc(Br)ccc3c2)CC1 (configuration not stated) was tested, and the IC50 was > 40 µM (inactive). For CCN(CC)C(=O)c1ccc(/C=C/c2c[nH]c3ccccc23)[n+](C)c1, the IC50 was “inactive”. With O=C(CSc1ncnc2c1oc1ccccc12)c1cccs1 the IC50 was 6.36 µM. With NS(=O)(=O)c1ccc(CCNc2nc3c(-c4cccc(F)c4)nnn3c3ccccc23)cc1 the IC50 was > 40 µM (inactive). In the case of CCc1ccc(-c2cc(C(F)(F)F)n3nc(C(=O)Nc4c(C)nn(Cc5ccccc5Cl)c4C)cc3n2)s1, the IC50 is reported as “inactive”. O=C(COC(=O)c1cccnc1SCC(=O)NCc1ccccc1)NCc1ccccc1 showed an IC50 of 4.11 µM. CC(=O)c1ccccc1NC(=O)c1cc(S(=O)(=O)N2CCOCC2)ccc1N1CCCC1 was tested, and the IC50 was 4.33 µM. With O=C(NCc1ccccc1)C(c1cc2ccccc2o1)n1c(=O)c(-c2ccccc2)nc2ccccc21 (configuration not stated) the IC50 was > 40 µM (inactive). With COc1ccc(-c2nc3c4ccccc4ccn3c2C=O)cc1 the IC50 was “inactive”. With O=C(CCCn1c(=S)[nH]c2cc3c(cc2c1=O)OCO3)NCc1ccccc1Cl the IC50 was “inactive”. CC(=O)c1cnc2c(-c3cccc(Br)c3)cnn2c1C was tested, and the IC50 was > 40 µM (inactive). CCN(CC)C(=O)CSc1nc(N)c(C#N)c(-c2cccs2)c1C#N was tested, and the IC50 was 8.24 µM. Oc1ccc(Br)cc1C1Nc2ccccc2S1 (configuration not stated) was tested, and the IC50 was 6.22 µM. In the case of COc1cccc(-c2nc(CS(=O)(=O)CC(=O)NCc3ccc(Cl)cc3)c(C)o2)c1, the IC50 is reported as > 40 µM (inactive). Work on CCn1c(=NC(=O)c2ccc(N3C(=O)CCC3=O)cc2)sc2c(OC)ccc(OC)c21 yielded an IC50 of 2.63 µM. In the case of COC(=O)c1ccc(NC(=O)c2cn(-c3ccccc3)nc2-c2ccncc2)cc1, the IC50 is reported as > 40 µM (inactive). Cc1ccc2[nH]cc(S(=O)(=O)c3ccc(C)c(C)c3)c(=O)c2c1 was tested, and the IC50 was > 40 µM (inactive). COc1cc(OC)cc(-c2c(C#Cc3ccsc3)c3cc(-c4ccc(SC)cc4)ccc3n2C)c1 was tested, and the IC50 was 7.92 µM. Compound COc1ccc(-c2cc(-c3ccc(OC)cc3)c(C#N)c(SC)n2)cc1 has an IC50 of 8.29 µM. Brc1ccc(Sc2cnc3ccccc3n2)cc1 was tested, and the IC50 was “inactive”. In the case of CCOc1cc2[nH]c(=S)n(CCC(=O)N3CCc4ccccc4C3)c(=O)c2cc1OCC, the IC50 is reported as “inactive”.

From PubChem BioAssay AID1259321 (Sanford-Burnham Center for Chemical Genomics, 2017)
